What was measured:
Format in all cases: cell-based
[1] = system: T315I-KOPM28 cells; assay: human CML cell proliferation inhibition; settings: 72 hours, Cell Counting Kit-8
Summary of the method: (§1)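 Bcr-Abl TCCS and KOPM28 cells, plus their T315I-Bcr-Abl counterparts, are treated with compound (final 0–10 μM, 5-fold steps) for 72 h at 37 °C. Viability is measured by CCK-8 at 450 nm, and GI50 is computed as percent of DMSO control.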

[2] = system: TCCS cells; assay: human CML cell proliferation inhibition; settings: 72 hours, Cell Counting Kit-8
Summary of the method: as §1

[3] = system: T315I-TCCS cells; assay: human CML cell proliferation inhibition; settings: 72 hours, Cell Counting Kit-8
Summary of the method: as §1

[4] = system: KOPM28 cells; assay: human CML cell proliferation inhibition; settings: 72 hours, Cell Counting Kit-8
Summary of the method: as §1

[5] = system: T315I-Bcr-Abl (Ba/F3); assay: Ba/F3 cell proliferation inhibition; settings: BaF3; 72 hours, Cell Counting Kit-8
Summary of the method: (§2)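 Parental and T315I-Bcr-Abl Ba/F3 cells, 1×10^4 per well, exposed 72 h at 37 °C to nine 3-fold dilutions, final 0 to 10 μM. Viability by CCK-8 after 2 h, absorbance 450 nm; GI50 fitted from percent of vehicle-treated cells.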

[6] = system: Parental (Ba/F3); assay: Ba/F3 cell proliferation inhibition; settings: BaF3; 72 hours, Cell Counting Kit-8
Summary of the method: as §2

Row | Structure (SMILES) | GI50 [1] | GI50 [2] | GI50 [3] | GI50 [4] | GI50 [5] | GI50 [6]
1 | Cc1cc(F)c(C(=O)Nc2ccc(CN3CC(OC(C)C)C3)c(C(F)(F)F)c2)cc1C#Cc1cnc2c(Nc3cnn(C)c3)cccn12 [Example 62, 2-fluoro-N-(4-((3-isopropoxyazetidin-1-yl)methyl)-3-(trifluoromethyl)phenyl)-4-methyl-5-((8-((1-methyl-1H-pyrazol-4-yl)amino)imidazo[1,2-a]pyridin-3-yl)ethynyl)benzamide] | > 100 nM | < 10 nM | > 100 nM | < 10 nM | 500 to 5000 nM | > 5000 nM
2 | Cc1cc(F)c(C(=O)Nc2ccc(Cn3ccnc3)c(C(F)(F)F)c2)cc1C#Cc1cnc2c(Nc3cnn(C)c3)cccn12 [Example 63, N-(4-((1H-imidazol-1-yl)methyl)-3-(trifluoromethyl)phenyl)-2-fluoro-4-methyl-5-((8-((1-methyl-1H-pyrazol-4-yl)amino)imidazo[1,2-a]pyridin-3-yl)ethynyl)benzamide] | > 100 nM | < 10 nM | > 100 nM | < 10 nM | 500 to 5000 nM | > 5000 nM
3 | Cc1cc(F)c(C(=O)Nc2ccc(Cn3cncn3)c(C(F)(F)F)c2)cc1C#Cc1cnc2c(Nc3cnn(C)c3)cccn12 [Example 64, N-(4-((1H-1,2,4-triazol-1-yl)methyl)-3-(trifluoromethyl)phenyl)-2-fluoro-4-methyl-5-((8-((1-methyl-1H-pyrazol-4-yl)amino)imidazo[1,2-a]pyridin-3-yl)ethynyl)benzamide] | > 100 nM | < 10 nM | 100 nM | < 10 nM | 50 to 500 nM | > 5000 nM
4 | Cc1cc(F)c(C(=O)Nc2ccc(Oc3ccncc3)c(C(F)(F)F)c2)cc1C#Cc1cnc2c(Nc3cnn(C)c3)cccn12 [Example 65, 2-fluoro-4-methyl-5-((8-((1-methyl-1H-pyrazol-4-yl)amino)imidazo[1,2-a]pyridin-3-yl)ethynyl)-N-(4-(pyridin-4-yloxy)-3-(trifluoromethyl)phenyl)benzamide] | 100 nM | < 10 nM | 100 nM | < 10 nM | 50 to 500 nM | > 5000 nM
5 | Cc1cc(F)c(C(=O)Nc2cc(CN3CCOCC3)cc(C(F)(F)F)c2)cc1C#Cc1cnc2c(Nc3cnn(C)c3)cccn12 [Example 66, 2-fluoro-4-methyl-5-((8-((1-methyl-1H-pyrazol-4-yl)amino)imidazo[1,2-a]pyridin-3-yl)ethynyl)-N-(3-(morpholinomethyl)-5-(trifluoromethyl)phenyl)benzamide] | > 100 nM | < 10 nM | > 100 nM | < 10 nM | 50 to 500 nM | > 5000 nM
6 | Cc1cc(F)c(C(=O)Nc2cc(CN3CCCN(C)CC3)cc(C(F)(F)F)c2)cc1C#Cc1cnc2c(Nc3cnn(C)c3)cccn12 [Example 67, 2-fluoro-4-methyl-N-(3-((4-methyl-1,4-diazepan-1-yl)methyl)-5-(trifluoromethyl)phenyl)-5-((8-((1-methyl-1H-pyrazol-4-yl)amino)imidazo[1,2-a]pyridin-3-yl)ethynyl)benzamide] | 100 nM | < 10 nM | 100 nM | < 10 nM | 50 to 500 nM | 500 to 5000 nM
7 | Cc1cc(F)c(C(=O)Nc2cc(CN3CCC(N(C)C)C3)cc(C(F)(F)F)c2)cc1C#Cc1cnc2c(Nc3cnn(C)c3)cccn12 (stereo not drawn) [Example 68, N-(3-((3-(dimethylamino)pyrrolidin-1-yl)methyl)-5-(trifluoromethyl)phenyl)-2-fluoro-4-methyl-5-((8-((1-methyl-1H-pyrazol-4-yl)amino)imidazo[1,2-a]pyridin-3-yl)ethynyl)benzamide] | 100 nM | < 10 nM | 100 nM | < 10 nM | < 50 nM | 500 to 5000 nM
